Experimental data reported in patent publication US8344028B2, “Gamma-amino-butyric acid derivatives as GABAB receptor ligands” (XenoPort, Inc., priority 2009, dated 2013).

Legend:
[1] = target: T1, GABAB receptor (Rattus norvegicus, UniProt Q9Z0U4); assay: [3H]CGP54626 rat brain GABAB receptor binding assay; settings: [3H]CGP54626 rat brain binding assay
T1 construct: from tissue; host or cells: rat cerebral cortex membranes

[2] = target: T2, recombinant human GABABR1a2 (Homo sapiens, UniProt Q9UBS5); assay: cAMP assay for determining GABAB receptor agonist activity; type: cell-based; settings: cells expressing recombinant human GABABR1a2; read-out: cAMP EC50
T2 construct: expressed in transfected cells; host or cells: HEK cells
T2 sequence (Q9UBS5 15-961 limits assumed): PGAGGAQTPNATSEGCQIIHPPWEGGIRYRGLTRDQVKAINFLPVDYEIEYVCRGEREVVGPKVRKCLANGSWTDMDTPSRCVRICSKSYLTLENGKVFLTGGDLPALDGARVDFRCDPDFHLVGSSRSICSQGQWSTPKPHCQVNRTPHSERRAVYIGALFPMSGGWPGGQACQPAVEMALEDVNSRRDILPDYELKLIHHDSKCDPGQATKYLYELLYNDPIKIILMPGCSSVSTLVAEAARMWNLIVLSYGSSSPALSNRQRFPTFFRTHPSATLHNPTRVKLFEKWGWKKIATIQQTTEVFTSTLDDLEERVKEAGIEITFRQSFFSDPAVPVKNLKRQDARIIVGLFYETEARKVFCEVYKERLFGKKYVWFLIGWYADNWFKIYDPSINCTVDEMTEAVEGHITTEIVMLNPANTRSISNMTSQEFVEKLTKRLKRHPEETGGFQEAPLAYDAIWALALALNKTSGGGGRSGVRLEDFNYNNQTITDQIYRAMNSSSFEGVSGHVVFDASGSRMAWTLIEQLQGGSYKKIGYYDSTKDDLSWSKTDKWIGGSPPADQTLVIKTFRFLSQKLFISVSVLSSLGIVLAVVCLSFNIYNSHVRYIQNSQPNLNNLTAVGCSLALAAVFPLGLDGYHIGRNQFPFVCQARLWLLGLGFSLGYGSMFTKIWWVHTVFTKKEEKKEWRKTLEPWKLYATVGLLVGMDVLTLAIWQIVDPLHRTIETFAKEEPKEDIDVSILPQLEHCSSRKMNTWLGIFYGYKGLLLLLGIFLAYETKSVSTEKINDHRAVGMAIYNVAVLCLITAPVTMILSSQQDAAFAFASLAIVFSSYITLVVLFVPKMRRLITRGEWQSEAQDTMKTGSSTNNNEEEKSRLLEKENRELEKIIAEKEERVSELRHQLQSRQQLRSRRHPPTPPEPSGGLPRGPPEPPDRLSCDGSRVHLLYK
T2 sequence (O75899 42-941 partner): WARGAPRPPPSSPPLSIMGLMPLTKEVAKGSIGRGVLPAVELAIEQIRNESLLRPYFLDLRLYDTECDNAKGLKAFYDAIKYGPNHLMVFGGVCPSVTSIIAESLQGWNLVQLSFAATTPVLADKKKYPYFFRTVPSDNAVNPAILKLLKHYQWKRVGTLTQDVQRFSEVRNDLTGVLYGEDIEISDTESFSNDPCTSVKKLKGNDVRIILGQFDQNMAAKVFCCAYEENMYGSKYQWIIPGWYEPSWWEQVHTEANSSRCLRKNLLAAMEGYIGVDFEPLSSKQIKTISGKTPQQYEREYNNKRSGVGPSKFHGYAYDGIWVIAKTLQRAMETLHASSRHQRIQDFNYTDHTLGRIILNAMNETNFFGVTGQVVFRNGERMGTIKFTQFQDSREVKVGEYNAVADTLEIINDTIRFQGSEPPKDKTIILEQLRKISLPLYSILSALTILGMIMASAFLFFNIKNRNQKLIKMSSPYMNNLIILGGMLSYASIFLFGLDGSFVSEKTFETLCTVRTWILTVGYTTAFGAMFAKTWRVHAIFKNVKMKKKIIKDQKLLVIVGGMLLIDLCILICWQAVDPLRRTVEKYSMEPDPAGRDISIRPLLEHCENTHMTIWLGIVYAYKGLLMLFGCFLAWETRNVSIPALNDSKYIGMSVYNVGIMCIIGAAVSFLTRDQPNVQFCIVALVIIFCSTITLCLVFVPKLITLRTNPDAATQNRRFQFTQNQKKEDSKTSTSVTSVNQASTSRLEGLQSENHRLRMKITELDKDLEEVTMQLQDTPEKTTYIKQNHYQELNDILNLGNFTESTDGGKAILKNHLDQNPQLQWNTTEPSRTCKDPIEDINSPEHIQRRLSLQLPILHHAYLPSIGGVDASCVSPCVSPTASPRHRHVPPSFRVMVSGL

[3] = target: GABAB receptor (Homo sapiens, UniProt Q9UBS5); assay: GABAB receptor agonist or partial agonist activity by binding, electrophysiology, cAMP and/or Ca2+ assay methods (Examples 83-86); type: cell-based
Chain of GABAB receptor (Homo sapiens, UniProt Q9UBS5) (Q9UBS5 20-961): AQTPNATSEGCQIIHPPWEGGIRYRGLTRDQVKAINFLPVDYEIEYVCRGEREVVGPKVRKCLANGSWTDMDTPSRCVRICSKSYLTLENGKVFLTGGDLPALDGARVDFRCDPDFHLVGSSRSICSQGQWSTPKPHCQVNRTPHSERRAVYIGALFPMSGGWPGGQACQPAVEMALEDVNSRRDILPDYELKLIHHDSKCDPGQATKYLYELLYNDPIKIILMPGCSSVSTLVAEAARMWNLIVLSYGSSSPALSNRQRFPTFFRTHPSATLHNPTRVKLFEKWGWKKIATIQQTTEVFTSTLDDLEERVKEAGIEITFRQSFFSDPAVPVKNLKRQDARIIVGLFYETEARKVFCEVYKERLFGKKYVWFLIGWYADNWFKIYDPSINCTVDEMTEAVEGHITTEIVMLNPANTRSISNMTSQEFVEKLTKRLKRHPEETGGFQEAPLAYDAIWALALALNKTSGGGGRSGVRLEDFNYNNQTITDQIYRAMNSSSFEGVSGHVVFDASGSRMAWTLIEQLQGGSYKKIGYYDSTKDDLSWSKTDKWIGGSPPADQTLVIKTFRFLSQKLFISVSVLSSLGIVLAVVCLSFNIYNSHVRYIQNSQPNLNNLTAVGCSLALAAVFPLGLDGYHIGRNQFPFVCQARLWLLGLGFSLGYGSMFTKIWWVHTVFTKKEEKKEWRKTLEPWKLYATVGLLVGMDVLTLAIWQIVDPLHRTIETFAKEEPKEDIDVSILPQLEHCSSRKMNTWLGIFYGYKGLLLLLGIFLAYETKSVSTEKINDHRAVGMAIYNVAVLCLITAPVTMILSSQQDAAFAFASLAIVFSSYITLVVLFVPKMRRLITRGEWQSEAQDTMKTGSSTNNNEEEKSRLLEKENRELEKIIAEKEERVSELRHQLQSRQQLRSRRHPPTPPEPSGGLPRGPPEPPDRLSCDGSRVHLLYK
Chain of GABAB receptor (Homo sapiens, UniProt Q9UBS5) (O75899 42-941 partner): as the sequence (O75899 42-941 partner) above
Outline: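 Binding: rat cortex membranes in 50 mM Tris pH 7.4 with 100 μM isoguvacine were preincubated 10 min at RT with compound, then radiolabeled CGP54626 (1-10 nM) was added; filtered and scintillation-counted. cAMP: GABAB R1a2 HEK cells, 1 h RT with 100 μM forskolin, chemiluminescence.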

T1 sequence (Q9Z0U4 20-960): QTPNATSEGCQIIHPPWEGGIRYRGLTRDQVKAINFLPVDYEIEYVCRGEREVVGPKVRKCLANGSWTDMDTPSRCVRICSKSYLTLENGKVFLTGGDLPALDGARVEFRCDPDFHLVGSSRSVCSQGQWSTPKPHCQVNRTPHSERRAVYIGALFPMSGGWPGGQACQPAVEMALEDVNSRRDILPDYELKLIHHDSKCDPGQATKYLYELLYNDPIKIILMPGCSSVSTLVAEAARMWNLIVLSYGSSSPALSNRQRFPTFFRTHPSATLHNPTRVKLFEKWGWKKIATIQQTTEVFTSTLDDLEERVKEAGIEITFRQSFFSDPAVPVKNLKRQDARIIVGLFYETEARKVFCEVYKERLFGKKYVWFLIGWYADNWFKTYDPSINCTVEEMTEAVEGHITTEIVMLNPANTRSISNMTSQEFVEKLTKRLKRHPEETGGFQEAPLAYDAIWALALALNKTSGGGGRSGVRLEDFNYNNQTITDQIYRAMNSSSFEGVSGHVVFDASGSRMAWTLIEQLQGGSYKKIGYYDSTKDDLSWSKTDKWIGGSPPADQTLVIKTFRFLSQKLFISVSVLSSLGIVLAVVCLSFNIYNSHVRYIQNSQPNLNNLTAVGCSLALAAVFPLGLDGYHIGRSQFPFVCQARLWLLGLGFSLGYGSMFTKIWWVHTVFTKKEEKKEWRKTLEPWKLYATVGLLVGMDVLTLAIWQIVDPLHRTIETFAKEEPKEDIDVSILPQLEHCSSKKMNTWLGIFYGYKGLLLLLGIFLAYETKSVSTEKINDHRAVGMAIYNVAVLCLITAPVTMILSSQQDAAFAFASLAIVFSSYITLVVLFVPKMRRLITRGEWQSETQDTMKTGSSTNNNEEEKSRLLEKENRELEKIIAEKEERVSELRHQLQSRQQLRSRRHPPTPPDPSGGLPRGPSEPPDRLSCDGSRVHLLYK
T1 sequence (O88871 41-940 partner): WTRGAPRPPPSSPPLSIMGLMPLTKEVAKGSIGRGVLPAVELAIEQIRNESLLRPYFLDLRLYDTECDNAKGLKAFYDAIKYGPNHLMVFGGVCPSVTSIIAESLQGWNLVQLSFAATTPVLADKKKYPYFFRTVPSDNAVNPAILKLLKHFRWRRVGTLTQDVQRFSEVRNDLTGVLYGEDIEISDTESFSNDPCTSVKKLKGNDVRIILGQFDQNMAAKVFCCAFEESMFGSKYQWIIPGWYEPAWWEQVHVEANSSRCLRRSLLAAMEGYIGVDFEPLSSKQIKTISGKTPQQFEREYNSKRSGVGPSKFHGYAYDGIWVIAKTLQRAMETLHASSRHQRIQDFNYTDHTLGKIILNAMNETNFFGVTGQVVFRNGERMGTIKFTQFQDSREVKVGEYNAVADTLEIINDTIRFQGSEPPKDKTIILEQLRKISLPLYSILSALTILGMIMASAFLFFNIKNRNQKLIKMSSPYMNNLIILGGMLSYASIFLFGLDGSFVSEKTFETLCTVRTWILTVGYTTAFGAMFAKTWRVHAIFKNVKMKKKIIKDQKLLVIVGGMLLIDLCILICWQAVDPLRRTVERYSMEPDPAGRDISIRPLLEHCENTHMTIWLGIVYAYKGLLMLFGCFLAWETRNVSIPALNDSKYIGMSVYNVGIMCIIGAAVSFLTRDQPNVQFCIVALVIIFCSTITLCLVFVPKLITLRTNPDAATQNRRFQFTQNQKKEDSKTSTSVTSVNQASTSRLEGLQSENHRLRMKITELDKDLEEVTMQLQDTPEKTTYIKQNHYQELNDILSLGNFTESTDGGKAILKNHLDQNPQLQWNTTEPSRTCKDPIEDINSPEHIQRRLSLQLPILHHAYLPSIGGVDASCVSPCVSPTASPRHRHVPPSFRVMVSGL

- IC50 [1]: < 25 µM
- EC50 [2]: < 0.1 µM
- GABAB receptor agonist or partial agonist activity [3]: agonist or partial agonist activity
Structure (SMILES): Cl.NC[C@H](CC(=O)O)c1ccc(Cl)c(OCc2ccncc2)c1 [Example 68, (3R)-4-Amino-3-[4-chloro-3-(4-pyridylmethoxy)phenyl]butanoic acid hydrochloride]
